Laboratory results taken from PubChem BioAssay (NCI).
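48-hour exposure; five concentrations; linearly interpolated endpoints. At the TGI there is no net growth.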

Tests used:
Assay in all cases: DTP human tumour cell line panel, 48 h
DMS 114 small cell lung = tested on: DMS 114 small cell lung
DMS 273 small cell lung = tested on: DMS 273 small cell lung
HCT-15 colon = tested on: HCT-15 colon
HL-60(TB) leukemia = tested on: HL-60(TB) leukemia
HOP-18 NSCLC = tested on: HOP-18 NSCLC
HOP-62 NSCLC = tested on: HOP-62 NSCLC
HS 578T breast = tested on: HS 578T breast
IGROV1 ovarian = tested on: IGROV1 ovarian
KM20L2 colon = tested on: KM20L2 colon
LXFL 529 NSCLC = tested on: LXFL 529 NSCLC
M19-MEL melanoma = tested on: M19-MEL melanoma
MDA-N = tested on: MDA-N
SF-295 CNS = tested on: SF-295 CNS
XF 498 CNS = tested on: XF 498 CNS
DLD-1 colon = tested on: DLD-1 colon
SNB-78 CNS = tested on: SNB-78 CNS

SMILES | TGI (DMS 114 small cell lung) [µM] | TGI (DMS 273 small cell lung) [µM] | TGI (HCT-15 colon) [µM] | TGI (HL-60(TB) leukemia) [µM] | TGI (HOP-18 NSCLC) [µM] | TGI (HOP-62 NSCLC) [µM] | TGI (HS 578T breast) [µM] | TGI (IGROV1 ovarian) [µM] | TGI (KM20L2 colon) [µM] | TGI (LXFL 529 NSCLC) [µM] | TGI (M19-MEL melanoma) [µM] | TGI (MDA-N) [µM] | TGI (SF-295 CNS) [µM] | TGI (XF 498 CNS) [µM] | TGI (DLD-1 colon) [µM] | TGI (SNB-78 CNS) [µM]
O=C(Cc1ccccc1F)NC1=C(Cl)C(=O)c2ccccc2C1=O | 0.543 | 11.5 | 13.3 | 0.8 | 3.32 | 24.2 | 23.8 | 9.25 | 29.8 | 5.56 | 12.4 | 11.8 | 11.8 | 1.68 |  | 
CC(C)C(=O)N1Cc2cc(Cl)cc(Cl)c2OC(=O)c2ccccc21 | 74 | > 100 | 85.9 | 57.6 | 93.1 | > 100 |  | 81 | 57.8 | 34.3 |  |  | > 100 |  | > 100 | > 100
COc1ccc(C2=NN(c3ccccc3)C[N+](c3ccc(C)cc3)=N2)cc1 | 65.1 | > 10 | > 100 | > 100 |  | > 100 |  | > 100 | > 100 | 38.5 | > 100 |  | > 100 | 52.9 | > 100 | > 100
COC(=O)c1cc(C(=O)OC)c(CC(=O)C(=O)NC2C3CC4CC(C3)CC2C4)nc1CC(=O)C(=O)NC1C2CC3CC(C2)CC1C3 (centres undefined) | > 100 | > 100 | > 100 | > 100 | > 100 | > 100 |  | > 100 | > 100 | > 100 | > 100 |  | > 100 |  | > 100 | > 100
COc1cc2c(c(OC)c1OC)-c1ccc(SC)c(=O)cc1C(CC(=O)Oc1cccc([N+](=O)[O-])c1)C2 (centres undefined) | 3.95 | > 100 | 2.24 |  | > 100 | > 100 |  | > 100 | 2.06 | > 100 | > 100 |  | > 100 | 20.3 | > 56.9 | > 100
CC(CCC[C@H](C)CO)[C@H]1[C@@H](O)C(O)C2[C@@H]3C[C@@H](O)C4(O)C[C@@H](O)CC[C@]4(C)C3CC[C@@]21C (some centres undefined) | > 100 | > 100 | > 100 | > 100 | > 100 | > 100 |  | > 100 | > 100 | > 100 | > 100 |  | > 100 | > 100 | > 100 | > 100
N#CCc1c(-c2ccccc2)n(S(=O)(=O)c2ccccc2)c2ccccc12 | > 100 | > 100 | > 100 | > 100 |  | > 100 |  | > 100 | > 100 | > 100 | > 100 |  | > 100 | > 100 | > 100 | 
O=C(/C=C\c1cccc2ccccc12)c1ccc(F)cc1 | 29.5 | 29.4 | 31.8 | 53 | 28.2 | > 100 |  | 29.4 | 31.1 | 30.8 | 39.4 |  | 41.1 |  | 37.6 | 38.5
CC(=O)OC(CC1(C)C(C)CCC23COC(=O)C2=CCCC31)c1ccoc1 (centres undefined) | > 100 |  | 56.2 |  |  | 85.3 |  |  | 58.7 | 38.9 | > 100 |  | > 100 | 44.6 | > 100 | 70.4
O=C/C1=C/C2=Cc3ccccc3C=C(/C=C(/C=O)C1)C2 | > 100 | > 100 | > 100 | > 100 |  | > 100 |  | > 100 | > 100 | > 100 | > 100 |  | > 100 | > 100 | > 100 | > 100
CC(=O)OCC1OC(n2ccc(=O)[nH]c2=O)C(OC(C)=O)C(OC(C)=O)C1OC(C)=O (centres undefined) | > 100 | > 100 | > 100 |  | > 100 | > 100 |  | > 100 | > 100 | > 100 | > 100 |  | > 100 | > 100 | > 100 | 
